We go through 53 compounds from patent US11292792B2, “Tricyclic CRBN ligands and uses thereof” (Kymera Therapeutics, Inc., priority 2018, dated 2022).

Some results are limits rather than exact numbers.

Sequence of His-tagged CRBN-DDB1 complex (Q96SW2 whole entry): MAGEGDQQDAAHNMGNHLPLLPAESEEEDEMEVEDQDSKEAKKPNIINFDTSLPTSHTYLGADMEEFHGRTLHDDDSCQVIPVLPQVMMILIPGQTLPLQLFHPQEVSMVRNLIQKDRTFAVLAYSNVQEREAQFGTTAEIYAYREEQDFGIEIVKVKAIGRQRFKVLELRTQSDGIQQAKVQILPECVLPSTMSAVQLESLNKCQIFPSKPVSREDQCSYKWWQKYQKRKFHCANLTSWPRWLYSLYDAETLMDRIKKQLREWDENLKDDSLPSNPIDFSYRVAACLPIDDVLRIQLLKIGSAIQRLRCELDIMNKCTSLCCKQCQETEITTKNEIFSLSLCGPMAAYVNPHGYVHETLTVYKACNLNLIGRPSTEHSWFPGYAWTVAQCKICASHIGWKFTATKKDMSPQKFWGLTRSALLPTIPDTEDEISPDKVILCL
Sequence of His-tagged CRBN-DDB1 complex (Q16531 whole entry partner): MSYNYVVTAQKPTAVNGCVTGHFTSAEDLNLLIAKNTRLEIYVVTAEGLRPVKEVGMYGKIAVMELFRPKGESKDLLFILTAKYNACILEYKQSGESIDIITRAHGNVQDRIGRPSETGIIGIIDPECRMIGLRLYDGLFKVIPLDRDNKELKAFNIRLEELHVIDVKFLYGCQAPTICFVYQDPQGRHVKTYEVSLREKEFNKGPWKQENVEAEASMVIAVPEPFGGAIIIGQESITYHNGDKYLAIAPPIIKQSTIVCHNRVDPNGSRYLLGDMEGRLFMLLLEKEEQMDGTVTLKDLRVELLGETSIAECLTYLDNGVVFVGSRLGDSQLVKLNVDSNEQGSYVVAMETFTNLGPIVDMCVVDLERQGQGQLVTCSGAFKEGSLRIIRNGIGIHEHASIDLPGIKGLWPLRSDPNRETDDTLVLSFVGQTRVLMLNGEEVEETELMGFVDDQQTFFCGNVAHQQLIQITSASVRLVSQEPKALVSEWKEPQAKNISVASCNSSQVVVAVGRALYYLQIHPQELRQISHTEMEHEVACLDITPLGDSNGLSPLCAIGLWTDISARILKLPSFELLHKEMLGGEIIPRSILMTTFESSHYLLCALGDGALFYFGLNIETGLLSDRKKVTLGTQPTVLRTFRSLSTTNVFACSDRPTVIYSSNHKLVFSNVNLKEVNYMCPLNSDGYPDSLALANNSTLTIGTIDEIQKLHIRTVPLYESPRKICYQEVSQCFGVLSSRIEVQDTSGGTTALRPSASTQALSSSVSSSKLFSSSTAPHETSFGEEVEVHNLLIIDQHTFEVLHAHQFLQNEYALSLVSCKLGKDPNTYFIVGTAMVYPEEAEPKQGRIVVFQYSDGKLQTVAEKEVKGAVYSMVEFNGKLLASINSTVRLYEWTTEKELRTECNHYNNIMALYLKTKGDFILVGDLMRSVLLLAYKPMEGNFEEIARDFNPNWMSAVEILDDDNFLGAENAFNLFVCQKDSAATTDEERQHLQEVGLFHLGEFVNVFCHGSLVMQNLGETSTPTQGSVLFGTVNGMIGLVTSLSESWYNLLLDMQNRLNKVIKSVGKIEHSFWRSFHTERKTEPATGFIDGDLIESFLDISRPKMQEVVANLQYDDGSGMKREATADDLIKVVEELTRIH

One experiment has as its target His-tagged CRBN-DDB1 complex (Homo sapiens (Human), UniProt Q96SW2). In words: Time-resolved fluorescence resonance energy transfer (TR-FRET) assay, displacement of Cy5-labeled thalidomide. It counts as binding.
Details: not given
How it is done: Equal volumes of His-tagged CRBN-DDB1 complex (56 nM) was mixed with Eu-cryptate labeled Anti-6HIS-monoclonal antibody (50× dilution from the commercial stock solution, Vender: Cisbio, Cat. #61HI2KLA) in a final buffer containing 20 mM HEPES pH 7.0, 150 mM NaCl, 0.005% Tween-20. […] The mixture were incubated at room temperature for 1 hour. FRET signals were measured on an EnVision plate reader (Perkin Elmer) by exciting at 340 nm and recording emission at both 615 nm as no FRET control and 665 nm as the FRET signals with a 60 microsecond delay. FRET efficiency was calculated as the ratio of fluorescent signals at […]. Quantitative loss of FRET efficiency as a function of compound concentrations was fitted by a four-parameter Logistic Function using GraphPad Prism 7.0 and the IC50 values were reported for each compound.
The compound numbers correspond to the compound numbers in Table 1.
A general note: In TR-FRET formats the signal depends on donor and acceptor labels being close together.
`O=C1CCC(N2C(=O)CN=C(c3ccccc3)c3ccccc32)C(=O)N1` (centres unmarked) [I-41] returned an IC50 of 30 to 100 µM.

Staying with this experiment, now noted: read-out: CRBN HTRF IC50.
For `Nc1ccc2c(c1)c1cccnc1n2C1CCC(=O)NC1=O` (centres unmarked) [I-5, 3-(6-Amino-9H-pyrido[2,3-b]indol-9-yl)piperidine-2,6-dione], the IC50 was under 10 µM.

As for `Nc1ccc2c3ccccc3n(C3CCC(=O)NC3=O)c2n1` (centres unmarked) [I-78], the IC50 was under 10 µM.

For `Nc1cnc2c(c1)c1ccccc1n2C1CCC(=O)NC1=O` (centres unmarked) [I-39, 3-(3-amino-9H-pyrido[2,3-b]indol-9-yl)piperidine-2,6-dione], the IC50 was under 10 µM.

Regarding `CNc1ccc2c(c1)c1cccnc1n2C1CCC(=O)NC1=O` (centres unmarked) [I-27, 3-(6-(methylamino)-9H-pyrido[2,3-b]indol-9-yl)piperidine-2,6-dione], the IC50 was under 10 µM.

`CN(C)c1ccc2c(c1)c1cccnc1n2C1CCC(=O)NC1=O` (centres unmarked) [I-28, 3-(6-(Dimethylamino)-9H-pyrido[2,3-b]indol-9-yl)piperidine-2,6-dione]: the IC50 was under 10 µM.

On to `O=C1CCC(n2c3ncccc3c3cccnc32)C(=O)N1` (centres unmarked) [I-3, 3-(9H-pyrrolo[2,3-b:5,4-b′]dipyridin-9-yl)piperidine-2,6-dione], for which the IC50 lay in the range of 30 to 100 µM.

Turning to `NCc1ccc2c3ccccc3n(C3CCC(=O)NC3=O)c2n1` (centres unmarked) [I-91, 3-(2-(aminomethyl)-9H-pyrido[2,3-b]indol-9-yl)piperidine-2,6-dione], the IC50 is 30 to 100 µM.

Consider `O=C1CCC(n2c3c(c4cccnc42)CN(C(=O)CCCCCCCCO)CC3)C(=O)N1` (centres unmarked) [I-68, 3-(6-(9-hydroxynonanoyl)-5,6,7,8-tetrahydro-9H-pyrrolo[2,3-b:4,5-c′]dipyridin-9-yl)piperidine-2,6-dione], for which the IC50 lay within 30 to 100 µM.

In the case of `O=C1CCC(n2c3cccc(CCCOCCOCCO)c3c3cccnc32)C(=O)N1` (centres unmarked) [I-51], the IC50 was under 10 µM.

`O=C1CCC(n2c3ccc(C#CCOCCOCCOCc4ccccc4)cc3c3cccnc32)C(=O)N1` (centres unmarked) [I-47]: the IC50 was under 10 µM.

In the case of `Cc1ccnc2c1c1ccccc1n2C1CCC(=O)NC1=O` (centres unmarked) [I-77, 3-(4-methyl-9H-pyrido[2,3-b]indol-9-yl)piperidine-2,6-dione], the IC50 was under 10 µM.

`COc1ccc2c3ccccc3n(C3CCC(=O)NC3=O)c2n1` (centres unmarked) [I-82]: the IC50 fell in the range of 10 to 30 µM.

On to `CC(C)(C)OC(=O)N1CCN(CCc2ccc3c(c2)c2cccnc2n3C2CCC(=O)NC2=O)CC1` (centres unmarked) [I-64, tert-butyl 4-(2-(9-(2,6-dioxopiperidin-3-yl)-9H-pyrido[2,3-b]indol-6-yl)ethyl)piperazine-1-carboxylate], for which the IC50 is under 10 µM.

As for `O=C1CCC(n2c3ccccc3n3ccnc23)C(=O)N1` (centres unmarked) [I-99], the IC50 fell in the range of 30 to 100 µM.

Regarding `O=C1CCC(n2c3ccccc3c3cnccc32)C(=O)N1` (centres unmarked) [I-43], the IC50 lay in the range of 30 to 100 µM.

In the case of `CCNC(=O)Nc1ccc2c(c1)c1cccnc1n2C1CCC(=O)NC1=O` (centres unmarked) [I-9, 1-(9-(2,6-Dioxopiperidin-3-yl)-9H-pyrido[2,3-b]indol-6-yl)-3-ethylurea], the IC50 is under 10 µM.

In the case of `NCCOCCOCCCc1cnc2c(c1)c1ccccc1n2C1CCC(=O)NC1=O` (centres unmarked) [I-59, 3-(3-(3-(2-(2-aminoethoxy)ethoxy)propyl)-9H-pyrido[2,3-b]indol-9-yl)piperidine-2,6-dione], the IC50 was under 10 µM.

Take `CC(C)(C)OC(=O)NCCOCCOCCNc1ccc2c(c1)c1cccnc1n2C1CCC(=O)NC1=O` (centres unmarked) [I-35, tert-butyl (2-(2-(2-((9-(2,6-dioxopiperidin-3-yl)-9H-pyrido[2,3-b]indol-6-yl)amino)ethoxy)ethoxy)ethyl)carbamate]: the IC50 is under 10 µM.

Turning to `O=C1CCC(n2c3ccncc3c3cccnc32)C(=O)N1` (centres unmarked) [I-56, 3-(9H-pyrrolo[2,3-b:4,5-c′]dipyridin-9-yl)piperidine-2,6-dione], the IC50 was 10 to 30 µM.

On to `CNc1ccc2c3ccccc3n(C3CCC(=O)NC3=O)c2n1` (centres unmarked) [I-79, 3-(2-(methylamino)-9H-pyrido[2,3-b]indol-9-yl)piperidine-2,6-dione], for which the IC50 is under 10 µM.

For the compound `CC(C)(C)OC(=O)NCCOCCCc1ccc2c(c1)c1cccnc1n2C1CCC(=O)NC1=O` (centres unmarked) [I-34, tert-butyl (2-(3-(9-(2,6-dioxopiperidin-3-yl)-9H-pyrido[2,3-b]indol-6-yl)propoxy)ethyl)carbamate], the IC50 was under 10 µM.

For `O=C1CCC(n2c3ccccc3c3ccc(Cl)nc32)C(=O)N1` (centres unmarked) [I-75], the IC50 was under 10 µM.

For `O=C1CCC(n2c3ccccc3c3c(C#CCOCCOCCOCc4ccccc4)ccnc32)C(=O)N1` (centres unmarked) [I-49], the IC50 was under 10 µM.

With `O=C1CCC(n2c3ccccc3c3ccsc32)C(=O)N1` (centres unmarked) [I-72], the IC50 was under 10 µM.

Consider `O=C1CCC(n2c3ccc(Br)cc3c3cccnc32)C(=O)N1` (centres unmarked) [I-26, 3-(6-Bromo-9H-pyrido[2,3-b]indol-9-yl)piperidine-2,6-dione], for which the 50% inhibitory concentration (IC50) was under 10 µM.

On to `O=C1CCC(n2c3ccccc3c3ccc(C(F)(F)F)nc32)C(=O)N1` (centres unmarked) [I-85], for which the IC50 is 10 to 30 µM.

Consider `CC(=O)Nc1ccc2c3ccccc3n(C3CCC(=O)NC3=O)c2n1` (centres unmarked) [I-90, N-(9-(2,6-dioxopiperidin-3-yl)-9H-pyrido[2,3-b]indol-2-yl)acetamide], for which the IC50 fell in the range of 10 to 30 µM.

With `O=C1CCC(n2c3cnccc3c3cccnc32)C(=O)N1` (centres unmarked) [I-69, 3-(9H-pyrrolo[2,3-b:5,4-c′]dipyridin-9-yl)piperidine-2,6-dione], the IC50 is over 100 µM.

In the case of `O=C1CCC(n2c3ccccc3c3ccccc32)C(=O)N1` (centres unmarked) [I-1, 3-(9H-Carbazol-9-yl)piperidine-2,6-dione], the IC50 lay within 10 to 30 µM.

Take `O=C1CCC(n2c3ccccc3c3c(Br)ccnc32)C(=O)N1` (centres unmarked) [I-31]: the IC50 was under 10 µM.

With `O=C1CCC(n2c3ccccc3c3c(Cl)csc32)C(=O)N1` (centres unmarked) [I-93, 3-(3-chloro-8H-thieno[2,3-b]indol-8-yl)piperidine-2,6-dione], the IC50 is under 10 µM.

As for `CC(=O)Nc1ccc2c(c1)c1cccnc1n2C1CCC(=O)NC1=O` (centres unmarked) [I-8, N-(9-(2,6-Dioxopiperidin-3-yl)-9H-pyrido[2,3-b]indol-6-yl)acetamide], the IC50 was under 10 µM.

In the case of `O=C1CCC(n2c3ccccc3c3ccncc32)C(=O)N1` (centres unmarked) [I-42], the IC50 was over 100 µM.

As for `CC(C)(C)OC(=O)NCCOCCOCCCc1cccc2c1c1cccnc1n2C1CCC(=O)NC1=O` (centres unmarked) [I-60], the IC50 was under 10 µM.

Consider `COc1nccc2c3ccccc3n(C3CCC(=O)NC3=O)c12` (centres unmarked) [I-65], for which the IC50 was 30 to 100 µM.

On to `O=C1CCC(n2c3ccccc3c3ccc(F)nc32)C(=O)N1` (centres unmarked) [I-84], for which the IC50 is under 10 µM.

On to `CC(C)(C)OC(=O)NCCOCCOCC#Cc1ccc2c(c1)c1cccnc1n2C1CCC(=O)NC1=O` (centres unmarked) [I-63], for which the IC50 was under 10 µM.

For `CN(C)c1ccc2c3ccccc3n(C3CCC(=O)NC3=O)c2n1` (centres unmarked) [I-80, 3-(2-(dimethylamino)-9H-pyrido[2,3-b]indol-9-yl)piperidine-2,6-dione], the IC50 lay within 10 to 30 µM.

For the compound `CCOC(=O)Nc1ccc2c(c1)c1cccnc1n2C1CCC(=O)NC1=O` (centres unmarked) [I-29, ethyl (9-(2,6-dioxopiperidin-3-yl)-9H-pyrido[2,3-b]indol-6-yl)carbamate], the IC50 lay in the range of 10 to 30 µM.

Take `Cc1ccc2c3ccccc3n(C3CCC(=O)NC3=O)c2n1` (centres unmarked) [I-86, 3-(2-methyl-9H-pyrido[2,3-b]indol-9-yl)piperidine-2,6-dione]: the IC50 is under 10 µM.

For the compound `CC(C)(C)OC(=O)NCCOCCOC(=O)NCc1ccc2c(c1)c1cccnc1n2C1CCC(=O)NC1=O` (centres unmarked) [I-38, 2-(2-((tert-butoxycarbonyl)amino)ethoxy)ethyl ((9-(2,6-dioxopiperidin-3-yl)-9H-pyrido[2,3-b]indol-6-yl)methyl)carbamate], the IC50 is under 10 µM.

For the compound `O=C1CCC(n2c3cccc(Br)c3c3ccsc32)C(=O)N1` (centres unmarked) [I-103, 3-(4-bromo-8H-thieno[2,3-b]indol-8-yl)piperidine-2,6-dione], the IC50 is under 10 µM.

Consider `CC(C)(C)OC(=O)NCCOCCOCCCc1ccc2c3cccnc3n(C3CCC(=O)NC3=O)c2c1` (centres unmarked) [I-58], for which the IC50 was 10 to 30 µM.

For `CC(C)(C)OC(=O)NCCOCC#Cc1ccc2c(c1)c1cccnc1n2C1CCC(=O)NC1=O` (centres unmarked) [I-33, tert-Butyl (2-((3-(9-(2,6-dioxopiperidin-3-yl)-9H-pyrido[2,3-b]indol-6-yl)prop-2-yn-1-yl)oxy)ethyl)carbamate], the 50% inhibitory concentration (IC50) was under 10 µM.

In the case of `O=C1CCC(n2c3ccc(NCCOCCOCCOCc4ccccc4)cc3c3cccnc32)C(=O)N1` (centres unmarked) [I-50], the IC50 was under 10 µM.

With `O=C1CCC(n2c3ccccc3c3scnc32)C(=O)N1` (centres unmarked) [I-66], the IC50 is 10 to 30 µM.

`CC(C)(C)OC(=O)NCCOCCOCCCc1ccc2c(c1)c1cccnc1n2C1CCC(=O)NC1=O` (centres unmarked) [I-62]: the IC50 is under 10 µM.

With `N#Cc1ccc2c3ccccc3n(C3CCC(=O)NC3=O)c2n1` (centres unmarked) [I-81, 9-(2,6-dioxopiperidin-3-yl)-9H-pyrido[2,3-b]indole-2-carbonitrile], the IC50 fell in the range of 10 to 30 µM.

`N#Cc1ccnc2c1c1ccccc1n2C1CCC(=O)NC1=O` (centres unmarked) [I-76, 9-(2,6-dioxopiperidin-3-yl)-9H-pyrido[2,3-b]indole-4-carbonitrile]: the IC50 is under 10 µM.

As to `CC(C)(C)OC(=O)N1CCc2c(c3cccnc3n2C2CCC(=O)NC2=O)C1` (centres unmarked) [I-40, tert-butyl 9-(2,6-dioxopiperidin-3-yl)-7,8-dihydro-5H-pyrrolo[2,3-b:4,5-c′]dipyridine-6(9H)-carboxylate], the IC50 fell in the range of 10 to 30 µM.

For `O=C1CCC(n2c3cccc(F)c3c3cccnc32)C(=O)N1` (centres unmarked) [I-100], the IC50 is under 10 µM.

With `O=C1CCC(n2c3ccccc3c3c(CCCOCCOCCO)ccnc32)C(=O)N1` (centres unmarked) [I-48], the IC50 is under 10 µM.

In general, IC50 refers to the concentration that gives 50% inhibition.
